Measured values as given in the supplement of paper PMC11208160.

Assay: recombinant barcode read abundance after kanamycin selection (control-corrected) (log10(CPM+1)); higher = more efficient recombination; sequences stand for … in AGTGCAGAGAAAATCGGCCAGTTTTCTCTGCCTGCAGTCCGCATGCCGT…ATTTATGCAGCGGACTGCCTTTCTCCCAAAGTGATAAACCGGACAGTATCATGGACCGGTTTTCCCGGTAATCCGTATTTGCAAGGTTGGTTTCACT; site = the 11-nt target
Outline: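 Pooled E. coli screen pairing targets with IS621 bridge RNA target-binding loops. Each oligo (promoter, target, barcode, J23119-driven first 104 bridge RNA bases) was Gibson-cloned into a vector with the remaining 73 bp and T7-inducible recombinase, then co-electroporated with a donor plasmid. Two replicates each were plated on chloramphenicol/ampicillin LB agar (control) or chloramphenicol/ampicillin/kanamycin with 0.1 mM IPTG. Recombination efficiency is recombinant-junction barcode counts as CPM, averaged, control-corrected, reported as log10(CPM+1).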

Row | Sequence | recombinant barcode read abundance (log10)
1 | GGCTCCCCTTGGGTTCTAACCTGTTGCGGGG [GGCTCCCCTCC_LTGcore_CT_RTGcore_CC] (site GGCTCCCCTCC) (LTG core: CT, RTG core: CC) | 0.0955
2 | GGCTCCCCTTGGGTTCTAACCTGTTGCGGTT [GGCTCCCCTCC_LTGcore_CT_RTGcore_AA] (site GGCTCCCCTCC) (LTG core: CT, RTG core: AA) | 0.285
3 | GGCTCCCGCTGGGTTCTAACCTGTTGCGGGC [GGCTCCCCTCC_LTGcore_GC_RTGcore_GC] (site GGCTCCCCTCC) (LTG core: GC, RTG core: GC) | 0.0637
4 | GGCTCCCGTTGGGTTCTAACCTGTTGCGGAG [GGCTCCCCTCC_LTGcore_GT_RTGcore_CT] (site GGCTCCCCTCC) (LTG core: GT, RTG core: CT) | 0.546
5 | GGCTCCCTGTGGGTTCTAACCTGTTGCGGCA [GGCTCCCCTCC_LTGcore_TG_RTGcore_TG] (site GGCTCCCCTCC) (LTG core: TG, RTG core: TG) | 0.234
6 | GGGAGCCAATGGGTTCTAACCTGTTGCTGTT [GGGAGCCCTCA_LTGcore_AA_RTGcore_AA] (site GGGAGCCCTCA) (LTG core: AA, RTG core: AA) | 0.427
7 | GGGAGCCCATGGGTTCTAACCTGTTGCTGAG [GGGAGCCCTCA_LTGcore_CA_RTGcore_CT] (site GGGAGCCCTCA) (LTG core: CA, RTG core: CT) | 1.06
8 | GGGAGCCCTTGGGTTCTAACCTGTTGCTGAA [GGGAGCCCTCA_LTGcore_CT_RTGcore_TT] (site GGGAGCCCTCA) (LTG core: CT, RTG core: TT) | 0.138
9 | GGGAGCCCTTGGGTTCTAACCTGTTGCTGAT [GGGAGCCCTCA_LTGcore_CT_RTGcore_AT] (site GGGAGCCCTCA) (LTG core: CT, RTG core: AT) | 0.599
10 | GGGAGCCCTTGGGTTCTAACCTGTTGCTGCC [GGGAGCCCTCA_LTGcore_CT_RTGcore_GG] (site GGGAGCCCTCA) (LTG core: CT, RTG core: GG) | 0.0726
11 | GGGAGCCCTTGGGTTCTAACCTGTTGCTGTT [GGGAGCCCTCA_LTGcore_CT_RTGcore_AA] (site GGGAGCCCTCA) (LTG core: CT, RTG core: AA) | 0.272
12 | GGGAGCCGCTGGGTTCTAACCTGTTGCTGAG [GGGAGCCCTCA_LTGcore_GC_RTGcore_CT] (site GGGAGCCCTCA) (LTG core: GC, RTG core: CT) | 0.379
13 | GGGAGCCGGTGGGTTCTAACCTGTTGCTGAG [GGGAGCCCTCA_LTGcore_GG_RTGcore_CT] (site GGGAGCCCTCA) (LTG core: GG, RTG core: CT) | 0.212
14 | GGGAGCCGGTGGGTTCTAACCTGTTGCTGCC [GGGAGCCCTCA_LTGcore_GG_RTGcore_GG] (site GGGAGCCCTCA) (LTG core: GG, RTG core: GG) | 0.0432
15 | GGGCGGAAATGGGTTCTAACCTGTTGCGGTT [GGGCGGACTCC_LTGcore_AA_RTGcore_AA] (site GGGCGGACTCC) (LTG core: AA, RTG core: AA) | 0.428
16 | GGGCGGAATTGGGTTCTAACCTGTTGCGGAT [GGGCGGACTCC_LTGcore_AT_RTGcore_AT] (site GGGCGGACTCC) (LTG core: AT, RTG core: AT) | 0.0199
17 | GGGCGGACATGGGTTCTAACCTGTTGCGGTG [GGGCGGACTCC_LTGcore_CA_RTGcore_CA] (site GGGCGGACTCC) (LTG core: CA, RTG core: CA) | 0.732
18 | GGGCGGACGTGGGTTCTAACCTGTTGCGGCG [GGGCGGACTCC_LTGcore_CG_RTGcore_CG] (site GGGCGGACTCC) (LTG core: CG, RTG core: CG) | 0.759
19 | GGGCGGACTTGGGTTCTAACCTGTTGCGGCT [GGGCGGACTCC_LTGcore_CT_RTGcore_AG] (site GGGCGGACTCC) (LTG core: CT, RTG core: AG) | 0.292
20 | GGGCGGACTTGGGTTCTAACCTGTTGCGGTG [GGGCGGACTCC_LTGcore_CT_RTGcore_CA] (site GGGCGGACTCC) (LTG core: CT, RTG core: CA) | 0.17
21 | GGGCGGAGCTGGGTTCTAACCTGTTGCGGGC [GGGCGGACTCC_LTGcore_GC_RTGcore_GC] (site GGGCGGACTCC) (LTG core: GC, RTG core: GC) | 0.417
22 | GGGCGGAGTTGGGTTCTAACCTGTTGCGGAC [GGGCGGACTCC_LTGcore_GT_RTGcore_GT] (site GGGCGGACTCC) (LTG core: GT, RTG core: GT) | 0.199
23 | GGGCGGATGTGGGTTCTAACCTGTTGCGGAG [GGGCGGACTCC_LTGcore_TG_RTGcore_CT] (site GGGCGGACTCC) (LTG core: TG, RTG core: CT) | 0.251

Row | Sequence | recombinant barcode read abundance (log10)
24 | GGGCGTGAATGGGTTCTAACCTGTTGCCTTT [GGGCGTGCTAG_LTGcore_AA_RTGcore_AA] (site GGGCGTGCTAG) (LTG core: AA, RTG core: AA) | 0.148
25 | GGGCGTGCATGGGTTCTAACCTGTTGCCTTG [GGGCGTGCTAG_LTGcore_CA_RTGcore_CA] (site GGGCGTGCTAG) (LTG core: CA, RTG core: CA) | 0.0757
26 | GGGCGTGCTTGGGTTCTAACCTGTTGCCTCT [GGGCGTGCTAG_LTGcore_CT_RTGcore_AG] (site GGGCGTGCTAG) (LTG core: CT, RTG core: AG) | 0.831
27 | GGGCGTGGGTGGGTTCTAACCTGTTGCCTCC [GGGCGTGCTAG_LTGcore_GG_RTGcore_GG] (site GGGCGTGCTAG) (LTG core: GG, RTG core: GG) | 0.116
28 | GGGCGTGGTTGGGTTCTAACCTGTTGCCTAC [GGGCGTGCTAG_LTGcore_GT_RTGcore_GT] (site GGGCGTGCTAG) (LTG core: GT, RTG core: GT) | 0.593
29 | GGGCGTGTGTGGGTTCTAACCTGTTGCCTAG [GGGCGTGCTAG_LTGcore_TG_RTGcore_CT] (site GGGCGTGCTAG) (LTG core: TG, RTG core: CT) | 0.228
30 | GGTGCCCAGTGGGTTCTAACCTGTTGCCGAG [GGTGCCCCTCG_LTGcore_AG_RTGcore_CT] (site GGTGCCCCTCG) (LTG core: AG, RTG core: CT) | 0.202
31 | GGTGCCCCATGGGTTCTAACCTGTTGCCGAG [GGTGCCCCTCG_LTGcore_CA_RTGcore_CT] (site GGTGCCCCTCG) (LTG core: CA, RTG core: CT) | 0.158
32 | GGTGCCCCATGGGTTCTAACCTGTTGCCGTG [GGTGCCCCTCG_LTGcore_CA_RTGcore_CA] (site GGTGCCCCTCG) (LTG core: CA, RTG core: CA) | 0.0735
33 | GGTGCCCCTTGGGTTCTAACCTGTTGCCGTA [GGTGCCCCTCG_LTGcore_CT_RTGcore_TA] (site GGTGCCCCTCG) (LTG core: CT, RTG core: TA) | 0.258
34 | GGTGCCCGATGGGTTCTAACCTGTTGCCGAG [GGTGCCCCTCG_LTGcore_GA_RTGcore_CT] (site GGTGCCCCTCG) (LTG core: GA, RTG core: CT) | 0.0132
35 | GGTGCCCGCTGGGTTCTAACCTGTTGCCGAG [GGTGCCCCTCG_LTGcore_GC_RTGcore_CT] (site GGTGCCCCTCG) (LTG core: GC, RTG core: CT) | 0.0494
36 | GGTGCCCGGTGGGTTCTAACCTGTTGCCGAG [GGTGCCCCTCG_LTGcore_GG_RTGcore_CT] (site GGTGCCCCTCG) (LTG core: GG, RTG core: CT) | 0.0774
37 | GGTGCCCGTTGGGTTCTAACCTGTTGCCGAC [GGTGCCCCTCG_LTGcore_GT_RTGcore_GT] (site GGTGCCCCTCG) (LTG core: GT, RTG core: GT) | 0.151
38 | GGTGCCCTATGGGTTCTAACCTGTTGCCGAG [GGTGCCCCTCG_LTGcore_TA_RTGcore_CT] (site GGTGCCCCTCG) (LTG core: TA, RTG core: CT) | 0.122
39 | GGTGCCCTCTGGGTTCTAACCTGTTGCCGGA [GGTGCCCCTCG_LTGcore_TC_RTGcore_TC] (site GGTGCCCCTCG) (LTG core: TC, RTG core: TC) | 0.0162
40 | GGTGCCCTGTGGGTTCTAACCTGTTGCCGCA [GGTGCCCCTCG_LTGcore_TG_RTGcore_TG] (site GGTGCCCCTCG) (LTG core: TG, RTG core: TG) | 0.15
41 | GGTGCCCTTTGGGTTCTAACCTGTTGCCGAG [GGTGCCCCTCG_LTGcore_TT_RTGcore_CT] (site GGTGCCCCTCG) (LTG core: TT, RTG core: CT) | 0.0486
42 | GTCGCCCATTGGGTTCTAACCTGTTGCTAAG [GTCGCCCCTTA_LTGcore_AT_RTGcore_CT] (site GTCGCCCCTTA) (LTG core: AT, RTG core: CT) | 0.926
43 | GTCGCCCCCTGGGTTCTAACCTGTTGCTAGG [GTCGCCCCTTA_LTGcore_CC_RTGcore_CC] (site GTCGCCCCTTA) (LTG core: CC, RTG core: CC) | 0.416
44 | GTCGCCCCTTGGGTTCTAACCTGTTGCTAAA [GTCGCCCCTTA_LTGcore_CT_RTGcore_TT] (site GTCGCCCCTTA) (LTG core: CT, RTG core: TT) | 0.194
45 | GTCGCCCCTTGGGTTCTAACCTGTTGCTACA [GTCGCCCCTTA_LTGcore_CT_RTGcore_TG] (site GTCGCCCCTTA) (LTG core: CT, RTG core: TG) | 0.151
